Data: ChEMBL document CHEMBL1201862, “PubChem BioAssay data set” (2004)
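Five compound concentrations were applied to cells in 96-well plates for 48 hours; endpoints were derived by simple linear interpolation of the resulting dose-response curve. The concentration for 50% growth inhibition is given as GI50.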 Active and inactive are the calls of the source. No stated cut-off is given here; in the data, active = GI50 up to about 1.1 µM and inactive = higher.

How the values were obtained:
Experiment in all cases: NCI anticancer screen, dose series, 48 h
SNB-78 = tested on: SNB-78
DLD-1 = tested on: DLD-1
HOP-62 = tested on: HOP-62
RPMI-8226 = tested on: RPMI-8226
DMS-273 = tested on: DMS-273
KM12 = tested on: KM12
SN12C = tested on: SN12C
HT-29 = tested on: HT-29
OVCAR-4 = tested on: OVCAR-4
RXF 393 = tested on: RXF 393
LXFL 529 = tested on: LXFL 529
HOP-18 = tested on: HOP-18
SF-295 = tested on: SF-295
COLO 205 = tested on: COLO 205
HCT-15 = tested on: HCT-15
HCT-116 = tested on: HCT-116
SW-620 = tested on: SW-620
SK-MEL-5 = tested on: SK-MEL-5
SF-539 = tested on: SF-539
ACHN = tested on: ACHN
CCRF-CEM = tested on: CCRF-CEM
DMS-114 = tested on: DMS-114
MOLT-4 = tested on: MOLT-4
SNB-19 = tested on: SNB-19
SK-MEL-2 = tested on: SK-MEL-2
NCI-H460 = tested on: NCI-H460
OVCAR-5 = tested on: OVCAR-5
OVCAR-8 = tested on: OVCAR-8
IGROV-1 = tested on: IGROV-1
EKVX = tested on: EKVX
Malme-3M = tested on: Malme-3M
UO-31 = tested on: UO-31
A549 = tested on: A549
K562 = tested on: K562
NCI-H23 = tested on: NCI-H23
HCC 2998 = tested on: HCC 2998
OVCAR-3 = tested on: OVCAR-3
NCI-H226 = tested on: NCI-H226
SK-MEL-28 = tested on: SK-MEL-28
SF-268 = tested on: SF-268
KM-20L2 = tested on: KM-20L2
SK-OV-3 = tested on: SK-OV-3
M19-MEL = tested on: M19-MEL
LOX IMVI = tested on: LOX IMVI
SNB-75 = tested on: SNB-75
CAKI-1 = tested on: CAKI-1
NCI-H522 = tested on: NCI-H522
786-0 = tested on: 786-0
U-251 = tested on: U-251
A498 = tested on: A498
M14 = tested on: M14
TK-10 = tested on: TK-10
UACC-62 = tested on: UACC-62
UACC-257 = tested on: UACC-257
HOP-92 = tested on: HOP-92
XF498 = tested on: XF498
SR = tested on: SR
HL-60 = tested on: HL-60

For `Cc1ccc(NC(=O)CSc2nnc(Cc3ccccc3)o2)cc1`, the GI50 (SNB-78) was > 100 µM (inactive), the GI50 (DLD-1) was > 100 µM (inactive) and the GI50 (HOP-62) was > 100 µM (inactive). For the same molecule, the GI50 (RPMI-8226) was > 100 µM (inactive), the GI50 (DMS-273) was > 100 µM (inactive) and the GI50 (KM12) was > 100 µM (inactive). For the same molecule, the GI50 (SN12C) was > 100 µM (inactive), the GI50 (HT-29) was > 100 µM (inactive) and the GI50 (OVCAR-4) was > 100 µM (inactive). The GI50 (RXF 393) was > 100 µM (inactive), the GI50 (LXFL 529) was > 100 µM (inactive) and the GI50 (HOP-18) was > 100 µM (inactive). For the same molecule, the GI50 (SF-295) was > 100 µM (inactive), the GI50 (COLO 205) was > 100 µM (inactive) and the GI50 (HCT-15) was over 100 µM. For the same molecule, the GI50 (HCT-116) was > 100 µM (inactive), the GI50 (SW-620) was > 100 µM (inactive) and the GI50 (SK-MEL-5) was > 100 µM (inactive). For the same molecule, the GI50 (SF-539) was > 100 µM (inactive), the GI50 (ACHN) was > 100 µM (inactive) and the GI50 (CCRF-CEM) was > 100 µM (inactive). The GI50 (DMS-114) was 53.2 µM (inactive), the GI50 (MOLT-4) was > 100 µM (inactive) and the GI50 (SNB-19) was > 100 µM (inactive). For the same molecule, the GI50 (SK-MEL-2) was > 100 µM (inactive), the GI50 (NCI-H460) was > 100 µM (inactive) and the GI50 (OVCAR-5) was > 100 µM (inactive). For the same molecule, the GI50 (OVCAR-8) was 97.9 µM (inactive), the GI50 (IGROV-1) was > 100 µM (inactive) and the GI50 (EKVX) was > 100 µM (inactive). For the same molecule, the GI50 (Malme-3M) was > 100 µM (inactive), the GI50 (UO-31) was > 100 µM (inactive) and the GI50 (A549) was > 100 µM (inactive). The GI50 (K562) was > 100 µM (inactive), the GI50 (NCI-H23) was > 100 µM (inactive) and the GI50 (HCC 2998) was > 100 µM (inactive). For the same molecule, the GI50 (OVCAR-3) was > 100 µM (inactive), the GI50 (NCI-H226) was > 100 µM (inactive) and the GI50 (SK-MEL-28) was > 100 µM (inactive). The GI50 (SF-268) was > 100 µM (inactive), the GI50 (KM-20L2) was > 100 µM (inactive) and the GI50 (SK-OV-3) was > 100 µM (inactive). The GI50 (M19-MEL) was > 100 µM (inactive), the GI50 (LOX IMVI) was > 100 µM (inactive) and the GI50 (SNB-75) was > 100 µM (inactive). For the same molecule, the GI50 (CAKI-1) was > 100 µM (inactive), the GI50 (NCI-H522) was > 100 µM (inactive) and the GI50 (786-0) was > 100 µM (inactive). For the same molecule, the GI50 (U-251) was > 100 µM (inactive), the GI50 (A498) was > 100 µM (inactive) and the GI50 (M14) was > 100 µM (inactive). The GI50 (TK-10) was > 100 µM (inactive), the GI50 (UACC-62) was > 100 µM (inactive) and the GI50 (UACC-257) was > 100 µM (inactive).

For `COc1cc(CNc2cnc3cc(N)ccc3n2)cc(OC)c1OC`, the GI50 (DLD-1) was 58.1 µM (inactive), the GI50 (HOP-62) was 51.4 µM (inactive) and the GI50 (DMS-273) was 0.191 µM (active). For the same molecule, the GI50 (KM12) was 66.4 µM (inactive), the GI50 (SN12C) was 54.5 µM (inactive) and the GI50 (HT-29) was 16.9 µM (inactive). The GI50 (OVCAR-4) was > 100 µM (inactive), the GI50 (LXFL 529) was 34.9 µM (inactive) and the GI50 (HOP-18) was 78.5 µM (inactive). The GI50 (SF-295) was 17.3 µM (inactive), the GI50 (COLO 205) was 22.4 µM (inactive) and the GI50 (HCT-15) was 23 µM. The GI50 (HCT-116) was 18.7 µM (inactive), the GI50 (SW-620) was 20 µM (inactive) and the GI50 (HOP-92) was 58.5 µM (inactive). For the same molecule, the GI50 (SK-MEL-5) was 14.9 µM (inactive), the GI50 (SF-539) was 19.4 µM (inactive) and the GI50 (ACHN) was 66.1 µM (inactive). For the same molecule, the GI50 (CCRF-CEM) was 31.4 µM (inactive), the GI50 (DMS-114) was 18.8 µM (inactive) and the GI50 (MOLT-4) was 15.9 µM (inactive). The GI50 (SNB-19) was 34.8 µM (inactive), the GI50 (SK-MEL-2) was 1.14 µM (inactive) and the GI50 (XF498) was 22.6 µM (inactive). For the same molecule, the GI50 (NCI-H460) was 30.8 µM (inactive), the GI50 (OVCAR-5) was 68.2 µM (inactive) and the GI50 (SR) was 5.65 µM (inactive). The GI50 (OVCAR-8) was 37.4 µM (inactive), the GI50 (IGROV-1) was 39.3 µM (inactive) and the GI50 (EKVX) was 76.7 µM (inactive). The GI50 (Malme-3M) was 52.5 µM (inactive), the GI50 (UO-31) was 36.8 µM (inactive) and the GI50 (A549) was 44.6 µM (inactive). For the same molecule, the GI50 (K562) was 5.53 µM (inactive), the GI50 (NCI-H23) was 28.5 µM (inactive) and the GI50 (HCC 2998) was 35.1 µM (inactive). The GI50 (OVCAR-3) was 12.6 µM (inactive), the GI50 (SK-MEL-28) was > 100 µM (inactive) and the GI50 (SF-268) was > 100 µM (inactive). For the same molecule, the GI50 (KM-20L2) was 14 µM (inactive), the GI50 (SK-OV-3) was 20.7 µM (inactive) and the GI50 (M19-MEL) was 16.5 µM (inactive). The GI50 (LOX IMVI) was 23.9 µM (inactive), the GI50 (SNB-75) was 31.6 µM (inactive) and the GI50 (CAKI-1) was 34.7 µM (inactive). The GI50 (HL-60) was 7.21 µM (inactive), the GI50 (NCI-H522) was 18.8 µM (inactive) and the GI50 (786-0) was 43.7 µM (inactive). The GI50 (U-251) was 29.2 µM (inactive), the GI50 (A498) was 26.5 µM (inactive) and the GI50 (M14) was 16.4 µM (inactive). The GI50 (TK-10) was 64.9 µM (inactive), the GI50 (UACC-62) was 12.7 µM (inactive) and the GI50 (UACC-257) was > 100 µM (inactive).
